# Results taken from patent publication US10392369B2, “N-[(pyrimidinyloxy)propanyl]benzamides” (Boehringer Ingelheim International GmbH, priority 2016, dated 2019).
# Where two headings read alike, the source gives them in different places.
# Experiments:
# human Orexin 1 receptor = target: T1, human Orexin 1 receptor (Homo sapiens, UniProt O43613); assay: Assay A: OX1R IP1 (in vitro OX1R potency); type: cell-based; details: for Kb: Table 3, read-out: Assay A OX1R Kb (Orexin A concentration); for OX1R selectivity over OX2R (selectivity ratio OX2R Kb/OX1R Kb) compared to Example 91 in WO2016/034882 / OX1R potency compared to Example 91 in WO2016/034882: versus Example 91 in WO2016/034882
# T1 construct: stably expressing the full-length human Orexin 1 receptor; expressed in transfected cells; host or cells: CHO-K1 (CHO-K1/hOx1), co-expressing the aequorin photoprotein
# T1 sequence (O43613 1-425): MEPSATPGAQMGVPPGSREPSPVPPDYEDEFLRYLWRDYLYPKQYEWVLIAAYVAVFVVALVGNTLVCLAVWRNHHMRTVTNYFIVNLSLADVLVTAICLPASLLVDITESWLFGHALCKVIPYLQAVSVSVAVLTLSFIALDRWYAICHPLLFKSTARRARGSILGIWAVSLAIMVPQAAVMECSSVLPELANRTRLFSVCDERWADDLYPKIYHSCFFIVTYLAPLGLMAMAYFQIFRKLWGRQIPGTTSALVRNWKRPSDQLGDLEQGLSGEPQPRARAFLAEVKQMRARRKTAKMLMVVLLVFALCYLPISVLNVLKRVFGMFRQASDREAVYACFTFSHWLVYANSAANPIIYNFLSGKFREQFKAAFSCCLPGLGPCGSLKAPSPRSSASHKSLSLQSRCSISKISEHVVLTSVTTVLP
# Description: Activation of the orexin receptors expressed in cell lines results in an increase in intracellular IP3 concentration. IP1, a downstream metabolite of IP3, accumulates in cells following receptor activation and is stable in the presence of LiCl. Using Homogeneous Time-Resolved Fluorescence technology with Lumi4-Tb cryptate (commercially available from Cisbio Bioassay.) and a suitable fluorescence plate reader. […] This technique is used to characterize pharmacological modification of the orexin receptors.
# A. In Vitro Testing of OX1R Potency: OX1R IP1
# IP1 measurements are performed in CHO-K1 cells stably expressing the full-length human Orexin 1 receptor and the aequorin photoprotein. Cells are cultivated in Ham's nutrient mixture F12 medium with 10% fetal calf serum, in a 37° C., 95% humidity and 5% CO2 incubator. The CHO-K1/hOx1 cell mass is expanded to larger cell numbers. The cells are obtained as frozen cells in cryo-vials and stored until use at −150° C. […] In preparation for the assay, 24 hours before the assay, the cells are thawed at 37° C. and immediately diluted with cell culture medium. After centrifugation, the cell pellet is re-suspended in medium and then distributed into the assay plates with a density of 10000 cells/25 μL per well. The plates are incubated for one hour at room temperature to reduce edge effects before they are incubated for 24 hours at 37° C./5% CO2. Compounds are prepared by an 8-point serial dilution in DMSO and a final dilution step into assay buffer (HBSS with 20 mM HEPES, 0.1% BSA and 50 mM LiCl, pH 7.4) to ensure a final DMSO concentration of 1% in the assay.
# (§1) On the day of the assay, cells in the plate are washed twice with 60 μL assay buffer (20 μL buffer remained in the wells after washing), followed by adding 5 μL per well of compounds diluted in assay buffer. After 15 minutes of incubation at room temperature 5 μL per well of Orexin A peptide (final concentration: 0.5 nM and/or 50 nM) dissolved in assay buffer is added to the assay plate. The assay plate is incubated for 60 minutes at 37° C. Then 5 μl per well of Anti-IP1-Cryptate Tb solution and 5 μl per well of IP1-d2 dilution are added and the plate is incubated for a further 60 minutes light protected at room temperature.
# (§2) 8-point four parametric non-linear curve fitting and determination of IC50 values and Hill slopes is performed using a regular analysis software e.g. AssayExplorer (Accelrys). In order to establish an agonist concentration independent parameter, Kb values are calculated using the following equation: IC50/((2+(A/EC50)^n)^1/n−1) (with A=concentration agonist, EC50=EC50 agonist, n=Hill slope agonist).
# human orexin 2 receptor = target: T2, human orexin 2 receptor (Homo sapiens, UniProt O43614); assay: Assay B: OX2R IP1 (in vitro OX2R potency); type: cell-based; details: Table 3; 0.5 nM Orexin A
# T2 construct: stably expressing the full-length human orexin 2 receptor; expressed in transfected cells; host or cells: CHO-K1 (CHO-K1/hOx2), co-expressing the aequorin photoprotein
# T2 sequence (O43614 1-444): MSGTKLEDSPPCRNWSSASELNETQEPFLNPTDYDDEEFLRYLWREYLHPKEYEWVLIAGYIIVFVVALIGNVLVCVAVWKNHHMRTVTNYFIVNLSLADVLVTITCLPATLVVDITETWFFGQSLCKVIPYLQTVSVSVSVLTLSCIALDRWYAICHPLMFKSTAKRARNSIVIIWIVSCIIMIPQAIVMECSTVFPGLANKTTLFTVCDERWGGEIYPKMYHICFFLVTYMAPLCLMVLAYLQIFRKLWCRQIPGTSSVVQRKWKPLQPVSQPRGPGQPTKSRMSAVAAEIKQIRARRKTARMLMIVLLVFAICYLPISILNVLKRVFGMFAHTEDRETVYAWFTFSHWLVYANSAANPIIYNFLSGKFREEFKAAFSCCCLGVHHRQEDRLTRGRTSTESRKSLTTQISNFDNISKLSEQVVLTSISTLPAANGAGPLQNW
# Description: Activation of the orexin receptors expressed in cell lines results in an increase in intracellular IP3 concentration. IP1, a downstream metabolite of IP3, accumulates in cells following receptor activation and is stable in the presence of LiCl. Using Homogeneous Time-Resolved Fluorescence technology with Lumi4-Tb cryptate (commercially available from Cisbio Bioassay.) and a suitable fluorescence plate reader. […] Chem. Genomics 2009, 3, 22-32. This technique is used to characterize pharmacological modification of the orexin receptors.
# B. In Vitro Testing of OX2R Potency: OX2R IP1
# IP1 measurements are performed in CHO-K1 cells stably expressing the full-length human orexin 2 receptor and the aequorin photoprotein. Cells are cultivated in Ham's nutrient mixture F12 medium with 10% fetal calf serum, in a 37° C., 95% humidity and 5% CO2 incubator. The CHO-K1/hOx2 cell mass is expanded to larger cell numbers. The cells are obtained as frozen cells in cryo-vials and stored until use at −150° C. The viability of the cells after thawing is >90%. In preparation for the assay, 24 hours before the assay, the cells are thawed at 37° C. and immediately diluted with cell culture medium. After centrifugation, the cell pellet is resuspended in medium and then distributed into the assay plates with a density of 5000 cells/25 μL per well. The plates are incubated for one hour at room temperature to reduce edge effects before they are incubated for 24 hours at 37° C./5% CO2. Compounds are prepared by a 8-point serial dilution in DMSO and a final dilution step into assay buffer (HBSS with 20 mM HEPES, 0.1% BSA and 50 mM LiCl, pH 7.4) to ensure a final DMSO concentration of 1% in the assay.
# as §1, with “concentration: 0.5 nM) dissolved” for “concentration: 0.5 nM and/or 50 nM) dissolved”, “are added to all well of the plate and the” for “are added and the”, “room temperature. The emission at 615 nm and 665 nm (Excitation wavelength: 320 nm) are measured using an EnVision reader (PerkinElmer). The ratio between the emission at 665 nm and 615 is calculated by the reader.” for “room temperature.”
# as §2, with “of […]” for “of IC50”, “slope agonist) (see P. Leff, I. G. Dougall, Trends Pharmacol. Sci. 1993, 14(4), 110-112).” for “slope agonist).”
Structure (SMILES),OX2R Kb/OX1R Kb (human Orexin 1 receptor),Kb (human Orexin 1 receptor; 0.5 nM Orexin A) [nM],OX1R selectivity over OX2R (selectivity ratio OX2R Kb/OX1R Kb) compared to Example 91 in WO2016/034882 (human Orexin 1 receptor; in words),Kb (human orexin 2 receptor) [nM],Kb (human Orexin 1 receptor; 50 nM Orexin A) [nM],"OX1R selectivity compared to Example 14 in WO2016/034882 (human Orexin 1 receptor; in words, versus Example 14 in WO2016/034882)",OX1R potency compared to Example 91 in WO2016/034882 (human Orexin 1 receptor; in words)
CCN(C(=O)c1ccccc1-c1cnc(C)o1)[C@@H](C)COc1ncc(C(F)(F)F)cn1 [Example 31],124,6,increase in OX1R selectivity,746,–,–,–
CCN(C(=O)c1ccc(F)cc1-c1ncccn1)[C@@H](C)COc1ncc(C(F)(F)F)cn1 [Example 25],–,0.81,–,272,1.4,–,–
CCN(C(=O)c1ccccc1-c1nc(C)no1)[C@@H](C)COc1ncc(C(F)(F)F)cn1 [Example 15],128,7.8,increase in OX1R selectivity,999,–,–,–
CCN(C(=O)c1ccccc1-c1ncco1)[C@@H](C)COc1ncc(C(F)(F)F)cn1 [Example 36],160,3.2,increase in OX1R selectivity,511,–,–,–
CCN(C(=O)c1cccc(F)c1-c1ncccn1)[C@@H](C)COc1ncc(C(F)(F)F)cn1 [Example 32],–,0.61,–,188,0.46,increase in OX1R selectivity,–
CCN(C(=O)c1ccc(OC)cc1-n1nccn1)[C@@H](C)COc1ncc(C(F)(F)F)cn1 [Example 30],322,1.8,increase,579,–,–,increase
CCN(C(=O)c1cccc(F)c1-n1nccn1)[C@@H](C)COc1ncc(Br)cn1 [Example 29],178,2,increase in OX1R selectivity,350,–,–,–
CCN(C(=O)c1cc(OC)ccc1-n1nccn1)[C@@H](C)COc1ncc(C(F)(F)F)cn1 [Example 14],–,0.97,increase,253,1.21,–,increase
CCN(C(=O)c1cc(F)ccc1-n1nccn1)[C@@H](C)COc1ncc(C(F)(F)F)cn1 [Example 20],309,2.6,more selective,803,–,–,–
CCN(C(=O)c1ccc(C)cc1-n1nccn1)[C@@H](C)COc1ncc(C(F)(F)F)cn1 [Example 13],–,0.5,increase,142,0.38,–,increase
CCN(C(=O)c1ccccc1-c1noc(C)n1)[C@@H](C)COc1ncc(C(F)(F)F)cn1 [Example 23],207,2.1,increase in OX1R selectivity,435,–,–,–
CCN(C(=O)c1ccc(C)c(C)c1-n1nccn1)[C@@H](C)COc1ncc(C(F)(F)F)cn1 [Example 10],869,–,increase,565,0.65,–,increase
CCN(C(=O)c1ccc(F)cc1-n1nccn1)[C@@H](C)COc1ncc(C(F)(F)F)cn1 [Example 7],201,4.5,more selective,902,–,–,–
CCN(C(=O)c1cccc(F)c1-c1nnc(C)o1)[C@@H](C)COc1ncc(C(F)(F)F)cn1 [Example 18],415,16,increase in OX1R selectivity,6640,–,–,–
CCN(C(=O)c1cc(F)cc(F)c1-n1nccn1)[C@@H](C)COc1ncc(C(F)(F)F)cn1 [Example 22],406,3.6,more selective,1460,–,–,–
CCN(C(=O)c1ccc(F)c(F)c1-n1nccn1)[C@@H](C)COc1ncc(C(F)(F)F)cn1 [Example 35],182,2.5,more selective,455,–,–,–
CCN(C(=O)c1cccc(C)c1-c1nnc(C)o1)[C@@H](C)COc1ncc(C(F)(F)F)cn1 [Example 21],–,2,increase in OX1R selectivity,540,1.9,–,–
